From patent US20220178936A1, “A SENSITIVE LC-MS ASSAY TO MEASURE CURCUMINOIDS IN COMPLEX BIOLOGICAL SAMPLES” (THE REGENTS OF THE UNIVERSITY OF CALIFORNIA, priority 2019, published 2022)
Read-outs that look alike come from different tables or passages of the source. Blank lines part the entries; values can stand above or below the molecule they belong to.

Columns and labels:
[1] = Curcuminoids in murine tumor, brain and liver after PHRAD 129; settings: for signal in murine tumor extract: oral PHRAD 129, 100 mg/kg daily
Description: Murine soft tissues. Mouse liver, brain, and tumor samples were collected from animals that had been administered a proprietary turmeric formulation (PHRAD 129, Aveta Biomics, Bedford, Mass.). After dissection, the tissues were weighed, frozen and stored at −80° C.
The samples were homogenized in a bead mill (thrice for 10 seconds each time at RT). The homogenate was vigorously mixed (5 min, RT), centrifuged (16,000 g, 5 min at RT), and the supernatant was transferred to microcentrifuge tubes and dried in a vacuum centrifuge. The dried samples were tightly capped and stored at −80° C.

[2] = in vivo
Description: (§1) Biological samples: Human plasma. […] The tubes were centrifuged (1000 g, 15 min), and plasma was collected and stored at −80° C.
(§2) Extraction of human plasma samples and BF2 complex formation: Plasma samples were prepared in duplicate by transferring aliquots of human plasma (100 uL) to 1.5 mL microcentrifuge tubes. The internal standards (1 pmol d6C and 5 pmol d6TC in 10 uL of methanol) were added to each sample. They were briefly vortexed, then treated with cold 10 mM acetic acid in methanol (1 mL). After rigorous mixing, incubation (4° C., 60 min) and centrifugation (16,000 g, Rt, 5 min) supernatants were transferred to clean microcentrifuge tubes and dried in a vacuum centrifuge. The dried samples were tightly capped and stored in −80° C.
(§3) Analysis of the blood collected at 0, 1, 2, 3, 4, and 5 hours after compound ingestion on Day 1 and 0, 1, 2, 3, and 4 hours on Day 17 was performed.

[3] = BF2-curcuminoid complex stability (hydrolysis, autosampler); assay type: physicochemical
Description: Complex stability: The BF2-curcumin complexes slowly hydrolyze in water and water/methanol mixtures with a half-life of a few hours at 4° C. For applicability to an LC/MS assay on biological samples containing amounts of curcuminoids as low as 50 fmol/sample, and using an aqueous chromatographic mobile phase, it was necessary to use conditions that minimized hydrolysis. This breakdown was slowed but not averted by storing the samples at even lower temperatures (−80° C.) prior to analysis. The breakdown of the derivatives was averted by performing the reaction in glacial acetic acid and directly injecting the reaction mixture onto the LC column. Even after the injection of hundreds of samples there has been no noticeable deterioration of chromatographic reliability. Furthermore, by using a short 10 minute chromatographic gradient the hydrolysis of the complexes during chromatography was minimized. The stability of BF2-curcuminoid complex was tested to validate the assay for overnight analysis. Eight QC-mid samples were prepared, stored tightly capped to minimize contact with atmospheric moisture in the autosampler at 20° C., and each sample was analyzed every hour for up to seven hours. Except for BF2-TC, the curcuminoid complexes were stable throughout the 7 hour test period with no significant decline in peak intensity (FIG. 4).

[4] = In vivo temporal profile of plasma curcuminoids and metabolites in a human volunteer; settings: Longvida four tablets daily for 17 consecutive days
Description: as §1, §2, §3

Molecule: COc1cc(C=CC2=CC(C=Cc3ccc(O)c(OC)c3)=[O+][B-](F)(F)O2)ccc1O [BF2-C]
hydrolysis half-life ([3]; water and water/methanol mixtures, 4° C.): a few hours

Molecule: COc1cc(/C=C/C(=O)CC(=O)/C=C/c2ccc(O)c(OC)c2)ccc1O [Curcumin, curcumin]
signal in mouse brain extract ([1]; mouse, in vivo): measurable peaks

Molecule: Demethoxycurcumin
signal in mouse brain extract ([1]; after PHRAD 129): measurable peaks
signal in mouse liver extract ([1]; after PHRAD 129): measurable peaks
signal in murine tumor extract [1]: strong signals

Molecule: demethoxycurcumin glucuronide [DMCG]
signal in mouse brain extract ([1]; after PHRAD 129): not detected
signal in mouse liver extract ([1]; after PHRAD 129): not detected
signal in murine tumor extract [1]: not detected
signal in human plasma extract [4]: intense peaks

Molecule: tetrahydrocurcumin
signal in murine tumor extract [1]: strong signals

More lines, now with the values ahead:

signal in mouse brain extract ([1]; mouse, in vivo): not detected
signal in mouse liver extract ([1]; mouse, in vivo): not detected
signal in human plasma extract [2]: intense peaks
Molecule: O=C(C=Cc1ccc(O)cc1)CC(=O)C=Cc1ccc(O[C@@H]2O[C@H](C(=O)O)[C@@H](O)[C@H](O)[C@H]2O)cc1 [BDMCG, bisdemethoxycurcumin glucuronide]

stability in autosampler (peak intensity) ([3]; glacial acetic acid reaction mixture, 20° C., 7 hour test period, QC-mid): slight loss of signal intensity
Molecule: COc1cc(CCC2=CC(CCc3ccc(O)c(OC)c3)=[O+][B-](F)(F)O2)ccc1O [BF2-TC]

signal in mouse liver extract ([1]; after PHRAD 129): measurable peaks
signal in murine tumor extract [1]: strong signals
Molecule: bisdemethoxycurcumin
